Reference: US10294202B2, “Pyrrolidinones as herbicides” (FMC Corporation, priority 2013, dated 2019)

Key:
Test in all cases: Test D pre-/postemergence herbicide test
oat, wild = type: in vivo, Avena fatua; conditions: for Plant response rating: Postemergence, Oat, Wild, scale 0 to 100; for Plant response rating, Oat, Wild: Preemergence, scale 0 to 100 (0 no effect, 100 complete control)
Procedure, shortened: (§1)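 Postemergence sprays were made on plants at the 1- to 4-leaf stage in peat-based medium, and preemergence sprays on seeds planted in silt loam. The formulation was a non-phytotoxic solvent mixture containing surfactant. Plants were compared with controls after 7 to 21 days and rated visually on a 0–100 scale.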

mustard, wild = type: in vivo, Sinapis arvensis; conditions: for Plant response rating: Mustard, Wild, scale 0 to 100; for Plant response rating, Mustard, Wild: scale 0 to 100 (0 no effect, 100 complete control)
Source text: (§2) Seeds of plant species selected from bluegrass (annual bluegrass, Poa annua), blackgrass (Alopecurus myosuroides), canarygrass (littleseed canarygrass, Phalaris minor), chickweed (common chickweed, Stellaria media), galium (catchweed bedstraw, Galium aparine), bromegrass, downy (downy bromegrass, Bromus tectorum), field poppy (Papaver rhoeas), field violet (Viola arvensis), foxtail, green (green foxtail, Setaria viridis), deadnettle (henbit deadnettle, Lamium amplexicaule), ryegrass, Italian (Italian ryegrass, Lolium multiflorum), kochia (Kochia scoparia), lambsquarters (Chenopodium album), oilseed rape (Brassica napus), pigweed (Amaranthus retroflexus), chamomile (scentless chamomile, Matricaria inodora), Russian thistle (Salsola kali), speedwell (bird's-eye speedwell, Veronica persica), barley, spring (spring barley, Hordeum vulgare), wheat, spring (spring wheat, Triticum aestivum), buckwheat, wild (wild buckwheat, Polygonum convolvulus), mustard, wild (wild mustard, Sinapis arvensis), oat, wild (wild oat, Avena fatua), radish, wild (wild radish, Raphanus raphanistrum), […]), barley, winter (winter barley, Hordeum vulgare), and wheat, winter (winter wheat, Triticum aestivum) were planted into a silt loam soil and treated preemergence with test chemicals formulated in a non-phytotoxic solvent mixture which included a surfactant. At the same time, these species were planted in pots containing Redi-Earth® planting medium (Scotts Company, 14111 Scottslawn Road, Marysville, Ohio 43041) comprising spaghnum peat moss, vermiculite, wetting agent and starter nutrients and treated with postemergence applications of the test chemicals formulated in the same manner. Plants ranged in height from 2 to 18 cm (1- to 4-leaf stage). Treated plants and controls were maintained in a controlled growth environment for 7 to 21 days after which time all species were compared to controls and visually evaluated. Plant response ratings, summarized in Table D, are based on a scale of 0 to 100 where 0 is no effect and 100 is complete control. A dash (-) response means no test result.

galium = type: in vivo, Galium aparine; conditions: for Plant response rating: Galium, scale 0 to 100; for Plant response rating, Galium: scale 0 to 100 (0 no effect, 100 complete control)
Procedure, shortened: as §1

bluegrass = type: in vivo, Poa annua; conditions: for Plant response rating: Bluegrass, scale 0 to 100; for Plant response rating, Bluegrass: scale 0 to 100 (0 no effect, 100 complete control)
Procedure, shortened: as §1

pigweed = type: in vivo, Amaranthus retroflexus; conditions: for Plant response rating: Postemergence, Pigweed, scale 0 to 100; for Plant response rating, Pigweed: Preemergence, scale 0 to 100 (0 no effect, 100 complete control)
Procedure, shortened: as §1

Russian thistle = type: in vivo, Salsola kali; conditions: for Plant response rating: Postemergence, Russian Thistle, scale 0 to 100; for Plant response rating, Russian Thistle: Preemergence, scale 0 to 100 (0 no effect, 100 complete control)
Source text: as §2

blackgrass = type: in vivo, Alopecurus myosuroides; conditions: for Plant response rating: Blackgrass, scale 0 to 100; for Plant response rating, Blackgrass: scale 0 to 100 (0 no effect, 100 complete control)
Source text: as §2

speedwell = type: in vivo, Veronica persica; conditions: for Plant response rating: Postemergence, Speedwell, scale 0 to 100; for Plant response rating, Speedwell: Preemergence, scale 0 to 100 (0 no effect, 100 complete control)
Procedure, shortened: as §1

bromegrass, downy = type: in vivo, Bromus tectorum; conditions: for Plant response rating: Bromegrass, Downy, scale 0 to 100; for Plant response rating, Bromegrass, Downy: scale 0 to 100 (0 no effect, 100 complete control)
Source text: as §2

In the case of `O=C1NCC(c2ccc(F)c(F)c2)C1C(=O)Nc1cccc(F)c1` (racemic) [Compound 12], the Plant response rating (oat, wild; 16 g ai/ha) is reported as 0, the Plant response rating (oat, wild; 31 g ai/ha) is reported as 0 and the Plant response rating (oat, wild; 62 g ai/ha) is reported as 10. For the same compound, the Plant response rating (oat, wild; 125 g ai/ha) was 15, the Plant response rating (oat, wild; 250 g ai/ha) was 20 and the “Plant response rating, Oat, Wild” value (oat, wild; 31 g ai/ha) was 0. For the same compound, the “Plant response rating, Oat, Wild” value (oat, wild; 62 g ai/ha) was 0, the “Plant response rating, Oat, Wild” value (oat, wild; 125 g ai/ha) was 0 and the “Plant response rating, Oat, Wild” value (oat, wild; 250 g ai/ha) was 0. For the same compound, the “Plant response rating, Oat, Wild” value (oat, wild; 16 g ai/ha) was 0, the Plant response rating (mustard, wild; Postemergence, 16 g ai/ha) was 0 and the Plant response rating (mustard, wild; Postemergence, 31 g ai/ha) was 10. For the same compound, the Plant response rating (mustard, wild; Postemergence, 62 g ai/ha) was 40, the Plant response rating (mustard, wild; Postemergence, 125 g ai/ha) was 100 and the “Plant response rating, Mustard, Wild” value (mustard, wild; Preemergence, 31 g ai/ha) was 0. The “Plant response rating, Mustard, Wild” value (mustard, wild; Preemergence, 62 g ai/ha) was 0, the “Plant response rating, Mustard, Wild” value (mustard, wild; Preemergence, 16 g ai/ha) was 0 and the Plant response rating (mustard, wild; Preemergence, 125 g ai/ha) was 20. It also gave a Plant response rating (mustard, wild; Preemergence, 250 g ai/ha) of 70, a Plant response rating (galium; Postemergence, 16 g ai/ha) of 0 and a Plant response rating (galium; Postemergence, 31 g ai/ha) of 0. For the same compound, the Plant response rating (galium; Postemergence, 62 g ai/ha) was 15, the Plant response rating (galium; Postemergence, 125 g ai/ha) was 20 and the Plant response rating (galium; Postemergence, 250 g ai/ha) was 25. The “Plant response rating, Galium” value (galium; Preemergence, 31 g ai/ha) was 0, the “Plant response rating, Galium” value (galium; Preemergence, 62 g ai/ha) was 0 and the “Plant response rating, Galium” value (galium; Preemergence, 16 g ai/ha) was 0. The Plant response rating (galium; Preemergence, 125 g ai/ha) was 0, the Plant response rating (galium; Preemergence, 250 g ai/ha) was 10 and the Plant response rating (bluegrass; Postemergence, 16 g ai/ha) was 0. For the same compound, the Plant response rating (bluegrass; Postemergence, 31 g ai/ha) was 0, the Plant response rating (bluegrass; Postemergence, 62 g ai/ha) was 0 and the Plant response rating (bluegrass; Postemergence, 125 g ai/ha) was 10. For the same compound, the Plant response rating (bluegrass; Postemergence, 250 g ai/ha) was 10, the “Plant response rating, Bluegrass” value (bluegrass; Preemergence, 31 g ai/ha) was 0 and the “Plant response rating, Bluegrass” value (bluegrass; Preemergence, 62 g ai/ha) was 0. For the same compound, the “Plant response rating, Bluegrass” value (bluegrass; Preemergence, 16 g ai/ha) was 0, the Plant response rating (bluegrass; Preemergence, 125 g ai/ha) was 20 and the Plant response rating (bluegrass; Preemergence, 250 g ai/ha) was 40. The Plant response rating (pigweed; 16 g ai/ha) was 0, the Plant response rating (pigweed; 31 g ai/ha) was 10 and the Plant response rating (pigweed; 62 g ai/ha) was 25. The Plant response rating (pigweed; 125 g ai/ha) was 30, the Plant response rating (pigweed; 250 g ai/ha) was 50 and the “Plant response rating, Pigweed” value (pigweed; 31 g ai/ha) was 0. For the same compound, the “Plant response rating, Pigweed” value (pigweed; 62 g ai/ha) was 0, the “Plant response rating, Pigweed” value (pigweed; 125 g ai/ha) was 0 and the “Plant response rating, Pigweed” value (pigweed; 250 g ai/ha) was 0. For the same compound, the “Plant response rating, Pigweed” value (pigweed; 16 g ai/ha) was 0, the Plant response rating (Russian thistle; 16 g ai/ha) was 0 and the Plant response rating (Russian thistle; 31 g ai/ha) was 0. It also gave a Plant response rating (Russian thistle; 62 g ai/ha) of 20, a Plant response rating (Russian thistle; 125 g ai/ha) of 30 and a Plant response rating (Russian thistle; 250 g ai/ha) of 80. For the same compound, the “Plant response rating, Russian Thistle” value (Russian thistle; 31 g ai/ha) was 0, the “Plant response rating, Russian Thistle” value (Russian thistle; 62 g ai/ha) was 0 and the “Plant response rating, Russian Thistle” value (Russian thistle; 125 g ai/ha) was 0. The “Plant response rating, Russian Thistle” value (Russian thistle; 250 g ai/ha) was 0, the “Plant response rating, Russian Thistle” value (Russian thistle; 16 g ai/ha) was 0 and the Plant response rating (blackgrass; Postemergence, 16 g ai/ha) was 5. For the same compound, the Plant response rating (blackgrass; Postemergence, 31 g ai/ha) was 10, the Plant response rating (blackgrass; Postemergence, 62 g ai/ha) was 10 and the Plant response rating (blackgrass; Postemergence, 125 g ai/ha) was 15. The Plant response rating (blackgrass; Postemergence, 250 g ai/ha) was 20, the “Plant response rating, Blackgrass” value (blackgrass; Preemergence, 31 g ai/ha) was 0 and the “Plant response rating, Blackgrass” value (blackgrass; Preemergence, 62 g ai/ha) was 0. For the same compound, the “Plant response rating, Blackgrass” value (blackgrass; Preemergence, 16 g ai/ha) was 0, the Plant response rating (blackgrass; Preemergence, 125 g ai/ha) was 0 and the Plant response rating (blackgrass; Preemergence, 250 g ai/ha) was 0. It also gave a Plant response rating (speedwell; 16 g ai/ha) of 0, a Plant response rating (speedwell; 31 g ai/ha) of 0 and a Plant response rating (speedwell; 62 g ai/ha) of 10. For the same compound, the Plant response rating (speedwell; 125 g ai/ha) was 10, the Plant response rating (speedwell; 250 g ai/ha) was 25 and the “Plant response rating, Speedwell” value (speedwell; 31 g ai/ha) was 0. For the same compound, the “Plant response rating, Speedwell” value (speedwell; 62 g ai/ha) was 0, the “Plant response rating, Speedwell” value (speedwell; 125 g ai/ha) was 0 and the “Plant response rating, Speedwell” value (speedwell; 250 g ai/ha) was 100. The “Plant response rating, Speedwell” value (speedwell; 16 g ai/ha) was 0, the Plant response rating (bromegrass, downy; Postemergence, 16 g ai/ha) was 0 and the Plant response rating (bromegrass, downy; Postemergence, 31 g ai/ha) was 0. It also gave a Plant response rating (bromegrass, downy; Postemergence, 62 g ai/ha) of 0, a Plant response rating (bromegrass, downy; Postemergence, 125 g ai/ha) of 0 and a Plant response rating (bromegrass, downy; Postemergence, 250 g ai/ha) of 5. The “Plant response rating, Bromegrass, Downy” value (bromegrass, downy; Preemergence, 31 g ai/ha) was 0, the “Plant response rating, Bromegrass, Downy” value (bromegrass, downy; Preemergence, 62 g ai/ha) was 0 and the “Plant response rating, Bromegrass, Downy” value (bromegrass, downy; Preemergence, 16 g ai/ha) was 0. It also gave a Plant response rating (bromegrass, downy; Preemergence, 125 g ai/ha) of 0 and a Plant response rating (bromegrass, downy; Preemergence, 250 g ai/ha) of 10.

For `O=C1NCC(c2cc(F)c(F)c(F)c2)C1C(=O)Nc1ccccc1C(F)(F)F` (racemic) [Compound 33], the Plant response rating (oat, wild; 16 g ai/ha) was 0, the Plant response rating (oat, wild; 31 g ai/ha) was 0 and the Plant response rating (oat, wild; 62 g ai/ha) was 0. For the same compound, the Plant response rating (oat, wild; 125 g ai/ha) was 0, the Plant response rating (oat, wild; 250 g ai/ha) was 0 and the Plant response rating (mustard, wild; Postemergence, 16 g ai/ha) was 0. For the same compound, the Plant response rating (mustard, wild; Postemergence, 31 g ai/ha) was 0, the Plant response rating (mustard, wild; Postemergence, 62 g ai/ha) was 0 and the Plant response rating (mustard, wild; Postemergence, 125 g ai/ha) was 0. The Plant response rating (mustard, wild; Postemergence, 250 g ai/ha) was 0, the Plant response rating (galium; Postemergence, 16 g ai/ha) was 0 and the Plant response rating (galium; Postemergence, 31 g ai/ha) was 0. The Plant response rating (galium; Postemergence, 62 g ai/ha) was 0, the Plant response rating (galium; Postemergence, 125 g ai/ha) was 0 and the Plant response rating (galium; Postemergence, 250 g ai/ha) was 0. It also gave a Plant response rating (bluegrass; Postemergence, 16 g ai/ha) of 0, a Plant response rating (bluegrass; Postemergence, 31 g ai/ha) of 0 and a Plant response rating (bluegrass; Postemergence, 62 g ai/ha) of 0. The Plant response rating (bluegrass; Postemergence, 125 g ai/ha) was 0, the Plant response rating (bluegrass; Postemergence, 250 g ai/ha) was 0 and the Plant response rating (pigweed; 16 g ai/ha) was 0. The Plant response rating (pigweed; 31 g ai/ha) was 0, the Plant response rating (pigweed; 62 g ai/ha) was 0 and the Plant response rating (pigweed; 125 g ai/ha) was 10. It also gave a Plant response rating (pigweed; 250 g ai/ha) of 10, a Plant response rating (Russian thistle; 16 g ai/ha) of 0 and a Plant response rating (Russian thistle; 31 g ai/ha) of 0. The Plant response rating (Russian thistle; 62 g ai/ha) was 0, the Plant response rating (Russian thistle; 125 g ai/ha) was 0 and the Plant response rating (Russian thistle; 250 g ai/ha) was 0. The Plant response rating (blackgrass; Postemergence, 16 g ai/ha) was 0, the Plant response rating (blackgrass; Postemergence, 31 g ai/ha) was 0 and the Plant response rating (blackgrass; Postemergence, 62 g ai/ha) was 0. The Plant response rating (blackgrass; Postemergence, 125 g ai/ha) was 0, the Plant response rating (blackgrass; Postemergence, 250 g ai/ha) was 0 and the Plant response rating (speedwell; 16 g ai/ha) was 0. The Plant response rating (speedwell; 31 g ai/ha) was 0, the Plant response rating (speedwell; 62 g ai/ha) was 0 and the Plant response rating (speedwell; 125 g ai/ha) was 0. The Plant response rating (speedwell; 250 g ai/ha) was 10, the Plant response rating (bromegrass, downy; Postemergence, 16 g ai/ha) was 0 and the Plant response rating (bromegrass, downy; Postemergence, 31 g ai/ha) was 0. For the same compound, the Plant response rating (bromegrass, downy; Postemergence, 62 g ai/ha) was 0, the Plant response rating (bromegrass, downy; Postemergence, 125 g ai/ha) was 0 and the Plant response rating (bromegrass, downy; Postemergence, 250 g ai/ha) was 0.
